Target: T1, human ferroportin (Homo sapiens, UniProt Q9NP59)
T1 construct: luciferase reporter (read with the Nano-Glo Luciferase Assay System); expressed in transfected cells; host or cells: CHO cells, stably transfected, expression induced with doxycycline
T1 sequence (Q9NP59 1-571): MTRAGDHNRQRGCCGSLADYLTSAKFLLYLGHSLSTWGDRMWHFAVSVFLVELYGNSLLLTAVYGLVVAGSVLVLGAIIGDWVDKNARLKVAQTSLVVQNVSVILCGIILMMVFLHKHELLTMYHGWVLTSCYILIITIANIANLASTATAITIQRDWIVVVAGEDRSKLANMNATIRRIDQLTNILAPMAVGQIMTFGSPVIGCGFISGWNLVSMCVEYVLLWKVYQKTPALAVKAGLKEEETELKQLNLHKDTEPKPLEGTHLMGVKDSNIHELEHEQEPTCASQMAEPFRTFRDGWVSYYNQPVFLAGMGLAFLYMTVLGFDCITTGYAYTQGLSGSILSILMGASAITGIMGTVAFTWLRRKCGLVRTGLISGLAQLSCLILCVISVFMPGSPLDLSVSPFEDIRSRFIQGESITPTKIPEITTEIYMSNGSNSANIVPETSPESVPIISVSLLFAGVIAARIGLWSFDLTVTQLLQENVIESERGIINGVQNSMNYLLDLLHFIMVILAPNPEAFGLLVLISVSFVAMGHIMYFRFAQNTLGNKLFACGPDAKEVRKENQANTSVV
Test: Biological in-vitro ferroportin internalization assay (luciferase reporter)
Assay type: cell-based
Conditions: average pEC50; stably-transfected CHO cell line expressing human ferroportin tagged to a luciferase reporter; 6 h incubation with test compound
Method: The protocol for this assay is generally as described in WO2018/128828, incorporated herein by reference in its entirety. Functional internalization of ferroportin protein was measured using a stably-transfected CHO cell line expressing the human ferroportin tagged to a luciferase reporter. Cells were plated for 24 h in the presence of ferric ammonium citrate (FAC). Ferroportin protein expression was induced with doxycycline for 24 h. The next day, the compounds were added. Test compounds were dissolved in DMSO. Cells were incubated with the test compounds for 6 h, and subsequently luciferase activity was measured using the Nano-Glo Luciferase Assay System and Glomax (Promega, Madison, Wis.). The average pEC50 was determined for the test compounds.

Row | Compound | pEC50
1 | COc1ccc(NC(=O)CN(C)c2nc(-c3cc(OCCO)ccn3)nc3c2CCC3)cc1 [Compound 269, 2-({2-[4-(2-hydroxyethoxy)pyridin-2-yl]-5H,6H,7H-cyclopenta[d]pyrimidin-4-yl}(methyl)amino)-N-(4-methoxyphenyl)acetamide] | 8.4
2 | CCN1CC[C@@H](Oc2ccnc(-c3nc4c(c(N(C)CC(=O)NC(C)(C)C)n3)CCC4)c2)C1 [Compound 496, N-tert-butyl-2-{[2-(4-{[(3R)-1-ethylpyrrolidin-3-yl]oxy}pyridin-2-yl)-5H,6H,7H-cyclopenta[d]pyrimidin-4-yl](methyl)amino}acetamide] | 8.0
3 | CN(C)CCOc1ccnc(-c2nc3c(c(N(C)CC(=O)NC4(C(F)(F)F)CC4)n2)CCC3)c1 [Compound 418, 2-[(2-{4-[2-(dimethylamino)ethoxy]pyridin-2-yl}-5H,6H,7H-cyclopenta[d]pyrimidin-4-yl)(methyl)amino]-N-[1-(trifluoromethyl)cyclopropyl]acetamide] | 7.5
4 | CN(CC(=O)NC12CC(C1)C2)c1nc(-c2cc(OCC(C)(C)O)ccn2)nc2c1CCC2 [Compound 383, N-{bicyclo[1.1.1]pentan-1-yl}-2-({2-[4-(2-hydroxy-2-methylpropoxy)pyridin-2-yl]-5H,6H,7H-cyclopenta[d]pyrimidin-4-yl}(methyl)amino)acetamide] | 7.8
5 | CN(C)CCOc1ccnc(-c2nc3c(c(N(C)CC(=O)NC(C)(C)C)n2)CC(C)(C)C3)c1 [Compound 454, N-tert-butyl-2-[(2-{4-[2-(dimethylamino)ethoxy]pyridin-2-yl}-6,6-dimethyl-5H,6H,7H-cyclopenta[d]pyrimidin-4-yl)(methyl)amino]acetamide] | 7.9
6 | Cc1ccc(NC(=O)CN(C)c2nc(-c3cc(OC4COC4)ccn3)nc3c2CCC3)cn1 [Compound 324, 2-[methyl({2-[4-(oxetan-3-yloxy)pyridin-2-yl]-5H,6H,7H-cyclopenta[d]pyrimidin-4-yl})amino]-N-(6-methylpyridin-3-yl)acetamide] | 7.4
7 | CN(CC(=O)NC(C)(C)C)c1nc(-c2cc(OCCN3CCOCC3)ccn2)nc2c1CCC2 [Compound 460, N-tert-butyl-2-[methyl(2-{4-[2-(morpholin-4-yl)ethoxy]pyridin-2-yl}-5H,6H,7H-cyclopenta[d]pyrimidin-4-yl)amino]acetamide] | 8.2
8 | COc1cc(-c2nc3c(c(N(C)CC(=O)NC(C)(C)C)n2)CCC3)ncc1C [Compound 192, N-tert-butyl-2-{[2-(4-methoxy-5-methylpyridin-2-yl)-5H,6H,7H-cyclopenta[d]pyrimidin-4-yl](methyl)amino}acetamide] | 6.5
9 | COc1ccc(NC(=O)CN(C)c2nc(-c3cc4cnccc4cn3)nc3c2CCC3)cn1 [Compound 258, N-(6-methoxypyridin-3-yl)-2-{methyl[2-(2,6-naphthyridin-3-yl)-5H,6H,7H-cyclopenta[d]pyrimidin-4-yl]amino}acetamide] | 6.3
10 | COCc1ccnc(-c2nc3c(c(N(C)CC(=O)NC(C)(C)C)n2)CCC3)c1 [Compound 35, N-tert-butyl-2-({2-[4-(methoxymethyl)pyridin-2-yl]-5H,6H,7H-cyclopenta[d]pyrimidin-4-yl}(methyl)amino)acetamide] | 7
11 | CN(C)CCOc1ccnc(-c2nc3c(c(N(C)CC(=O)NC(C)(C)C)n2)CCC3O)c1 (stereo not shown) [Compound 494, N-tert-butyl-2-[(2-{4-[2-(dimethylamino)ethoxy]pyridin-2-yl}-7-hydroxy-5H,6H,7H-cyclopenta[d]pyrimidin-4-yl)(methyl)amino]acetamide] | 6.3
12 | CN(CC(=O)NC1(C(F)(F)F)CC1)c1nc(-c2cc(OC3COC3)ccn2)nc2c1CCC2 [Compound 338, 2-[methyl({2-[4-(oxetan-3-yloxy)pyridin-2-yl]-5H,6H,7H-cyclopenta[d]pyrimidin-4-yl})amino]-N-[1-(trifluoromethyl)cyclopropyl]aceta-mide] | 7.1
13 | C[C@H](C(=O)NC(C)(C)C)N(C)c1nc(-c2cn(C)cn2)nc2c1CCC2 [Compound 112, (2R)—N-tert-butyl-2-{methyl[2-(1-methyl-1H-imidazol-4-yl)-5H,6H,7H-cyclopenta[d]pyrimidin-4-yl]amino}propanamide] | 8
14 | CN(CC(=O)NC(C)(C)C)c1nc(-c2cccc(OCCO)n2)nc2c1CCC2 [Compound 39, N-tert-butyl-2-({2-[6-(2-hydroxyethoxy)pyridin-2-yl]-5H,6H,7H-cyclopenta[d]pyrimidin-4-yl}(methyl)amino)acetamide] | 6.3
15 | CN(CC(=O)NC(C)(C)C)c1nc(-c2cnc(O)cn2)nc2c1CCC2 [Compound 28, N-tert-butyl-2-{[2-(5-hydroxypyrazin-2-yl)-5H,6H,7H-cyclopenta[d]pyrimidin-4-yl](methyl)amino}acetamide] | 5.9
16 | CN(CC(=O)N[C@@H]1CCC[C@@H]1O)c1nc(-c2cc(OCC(C)(C)O)ccn2)nc2c1CCC2 [Compound 397, 2-({2-[4-(2-hydroxy-2-methylpropoxy)pyridin-2-yl]-5H,6H,7H-cyclopenta[d]pyrimidin-4-yl}(methyl)amino)-N-[(1R,2S)-2-hydroxycyclopentyl]acetamide] | 7.6
17 | COc1ccnc(-c2nc3c(c(N(C)CC(=O)N4CCOCC4)n2)CCC3)c1 [Compound 477, 2-{[2-(4-methoxypyridin-2-yl)-5H,6H,7H-cyclopenta[d]pyrimidin-4-yl](methyl)amino}-1-(morpholin-4-yl)ethan-1-one] | 6.9
18 | CN(C)CCOc1ccnc(-c2nc3c(c(N(C)CC(=O)NC4CC4)n2)CCC3)c1 [Compound 500, N-cyclopropyl-2-[(2-{4-[2-(dimethylamino)ethoxy]pyridin-2-yl}-5H,6H,7H-cyclopenta[d]pyrimidin-4-yl)(methyl)amino]acetamide] | 7.3
19 | Cn1cnc(-c2nc3c(c(N4CCCCCC4)n2)CCC3)c1 [Compound 97, 1-[2-(1-methyl-1H-imidazol-4-yl)-5H,6H,7H-cyclopenta[d]pyrimidin-4-yl]azepane] | 7.1
20 | CCN(CC)CCOc1ccnc(-c2nc3c(c(N(C)CC(=O)NC(C)(C)C)n2)CCC3)c1 [Compound 400, N-tert-butyl-2-[(2-{4-[2-(diethylamino)ethoxy]pyridin-2-yl}-5H,6H,7H-cyclopenta[d]pyrimidin-4-yl)(methyl)amino]acetamide] | 8.2
21 | c1ccc(-c2nc3c(c(N4CC5CC4CO5)n2)CCC3)nc1 (stereo not shown) [Compound 72, 5-[2-(pyridin-2-yl)-5H,6H,7H-cyclopenta[d]pyrimidin-4-yl]-2-oxa-5-azabicyclo[2.2.1]heptane] | 5.5
22 | CN(c1nc(-c2ccccn2)nc2c1CCC2)[C@H](CO)C(=O)NC(C)(C)C [Compound 124, (2R)—N-tert-butyl-3-hydroxy-2-{methyl[2-(pyridin-2-yl)-5H,6H,7H-cyclopenta[d]pyrimidin-4-yl]amino}propanamide] | 7
23 | CNCCCc1ccnc(-c2nc3c(c(N(C)CC(=O)NC(C)(C)C)n2)CCC3)c1 [Compound 480, N-tert-butyl-2-[methyl(2-{4-[3-(methylamino)propyl]pyridin-2-yl}-5H,6H,7H-cyclopenta[d]pyrimidin-4-yl)amino]acetamide] | 7.3
24 | Cc1ccc(NC(=O)CN(C)c2nc(-c3cc(OCCO)ccn3)nc3c2C(C)(C)CC3)cn1 [Compound 331, 2-({2-[4-(2-hydroxyethoxy)pyridin-2-yl]-5,5-dimethyl-5H,6H,7H-cyclopenta[d]pyrimidin-4-yl}(methyl)amino)-N-(6-methylpyridin-3-yl)acetamide] | 8.3
25 | COc1ccnc(-c2nc3c(c(N(C)CC(=O)N[C@H]4CCOC4)n2)CCC3)c1 [Compound 371, 2-{[2-(4-methoxypyridin-2-yl)-5H,6H,7H-cyclopenta[d]pyrimidin-4-yl](methyl)amino}-N-[(3S)-oxolan-3-yl]acetamide] | 7.5
26 | Cc1cnc(-c2nc3c(c(N(C)CC(=O)NC(C)(C)C)n2)CCC3)cc1OCCO [Compound 191, N-tert-butyl-2-({2-[4-(2-hydroxyethoxy)-5-methylpyridin-2-yl]-5H,6H,7H-cyclopenta[d]pyrimidin-4-yl}(methyl)amino)acetamide] | 7
27 | CC(C)(C)NC(=O)CN(CCO)c1nc(-c2ccccn2)nc2c1CCC2 [Compound 37, N-tert-butyl-2-[(2-hydroxyethyl)[2-(pyridin-2-yl)-5H,6H,7H-cyclopenta[d]pyrimidin-4-yl]amino]acetamide] | 6.6
28 | COc1ccnc(-c2nc3c(c(N(C)CC(=O)N4CC[C@@H](O)C4)n2)CCC3)c1 [Compound 471, 1-[(3R)-3-hydroxypyrrolidin-1-yl]-2-{[2-(4-methoxypyridin-2-yl)-5H,6H,7H-cyclopenta[d]pyrimidin-4-yl](methyl)amino}ethan-1-one] | 7.4

From patent US11746100B2 (GLOBAL BLOOD THERAPEUTICS, INC., priority 2020, dated 2023)
